Data set [1] addresses T1, HDAC1 (Homo sapiens, UniProt Q13547).
T1 construct: Eurofins Cerep (contract screen)
Nature of the data set: Eurofins Cerep safety pharmacology screening. The class given is biochemical. The settings on record: read-out: Mean % inhibition (n=2); HDAC1, 10 µM. The source says:
(§1) Results showing any inhibition or stimulation higher than 50% are considered to represent significant effects of the test compounds.

The target of data set [2] is T2, HDAC10 (Homo sapiens, UniProt Q969S8).
T2 construct: Eurofins Cerep (contract screen)
T2 sequence (Q969S8 whole entry): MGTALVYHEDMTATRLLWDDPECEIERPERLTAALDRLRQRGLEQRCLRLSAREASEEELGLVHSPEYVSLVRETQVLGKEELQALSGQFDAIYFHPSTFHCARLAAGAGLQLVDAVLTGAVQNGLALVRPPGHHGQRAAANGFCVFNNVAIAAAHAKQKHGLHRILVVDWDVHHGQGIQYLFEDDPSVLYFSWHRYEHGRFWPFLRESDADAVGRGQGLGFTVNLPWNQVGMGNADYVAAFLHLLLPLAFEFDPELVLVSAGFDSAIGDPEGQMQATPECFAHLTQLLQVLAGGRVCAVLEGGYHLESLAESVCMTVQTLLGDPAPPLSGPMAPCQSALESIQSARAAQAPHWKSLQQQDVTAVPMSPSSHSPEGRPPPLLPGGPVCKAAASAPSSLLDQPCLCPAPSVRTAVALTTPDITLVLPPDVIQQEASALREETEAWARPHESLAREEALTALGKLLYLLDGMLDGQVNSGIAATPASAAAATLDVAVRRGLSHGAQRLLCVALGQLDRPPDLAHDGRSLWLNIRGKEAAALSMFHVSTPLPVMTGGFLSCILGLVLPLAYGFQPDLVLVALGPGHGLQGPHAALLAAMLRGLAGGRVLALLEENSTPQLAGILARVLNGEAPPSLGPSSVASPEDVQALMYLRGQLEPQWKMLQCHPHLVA
Nature of the data set: Eurofins Cerep safety pharmacology screening. The format is biochemical. As to conditions: read-out: Mean % inhibition (n=2); HDAC10, 10 µM.
Excerpt: as §1

The target in data set [3] is T3, HDAC5 (Homo sapiens, UniProt Q9UQL6).
T3 construct: Eurofins Cerep (contract screen)
T3 sequence (Q9UQL6 whole entry): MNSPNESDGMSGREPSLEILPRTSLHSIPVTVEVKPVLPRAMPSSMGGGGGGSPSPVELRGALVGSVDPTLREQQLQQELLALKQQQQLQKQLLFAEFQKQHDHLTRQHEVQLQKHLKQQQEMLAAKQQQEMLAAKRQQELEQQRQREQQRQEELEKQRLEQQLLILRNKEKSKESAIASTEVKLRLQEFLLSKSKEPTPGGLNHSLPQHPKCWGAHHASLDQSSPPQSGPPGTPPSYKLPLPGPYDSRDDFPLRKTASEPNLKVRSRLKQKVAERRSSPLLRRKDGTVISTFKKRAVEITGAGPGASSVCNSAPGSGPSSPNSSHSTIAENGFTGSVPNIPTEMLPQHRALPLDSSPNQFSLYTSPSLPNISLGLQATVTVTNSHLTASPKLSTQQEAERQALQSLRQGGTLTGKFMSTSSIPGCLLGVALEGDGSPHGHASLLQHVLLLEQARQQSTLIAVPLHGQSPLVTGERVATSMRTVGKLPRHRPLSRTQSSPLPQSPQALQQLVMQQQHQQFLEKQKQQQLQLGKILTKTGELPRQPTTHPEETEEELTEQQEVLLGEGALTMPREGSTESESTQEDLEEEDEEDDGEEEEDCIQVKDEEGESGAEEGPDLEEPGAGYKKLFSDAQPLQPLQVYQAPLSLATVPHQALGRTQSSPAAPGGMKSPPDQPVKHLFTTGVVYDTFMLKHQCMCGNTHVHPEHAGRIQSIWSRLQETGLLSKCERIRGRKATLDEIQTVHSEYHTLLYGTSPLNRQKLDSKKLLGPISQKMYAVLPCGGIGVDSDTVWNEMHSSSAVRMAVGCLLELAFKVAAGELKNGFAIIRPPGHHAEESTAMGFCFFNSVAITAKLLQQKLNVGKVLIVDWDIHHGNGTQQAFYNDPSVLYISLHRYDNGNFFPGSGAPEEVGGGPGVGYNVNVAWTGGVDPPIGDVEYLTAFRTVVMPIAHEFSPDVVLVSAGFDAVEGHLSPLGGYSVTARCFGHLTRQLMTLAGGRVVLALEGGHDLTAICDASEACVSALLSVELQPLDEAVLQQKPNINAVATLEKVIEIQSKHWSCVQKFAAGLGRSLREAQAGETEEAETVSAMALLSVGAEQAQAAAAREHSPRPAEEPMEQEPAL
Nature of the data set: Eurofins Cerep safety pharmacology screening. The settings on record: read-out: Mean % inhibition (n=2); HDAC5, 10 µM. The class given is biochemical.
Excerpt: as §1

Data set [4] deals with T4, HDAC7 (Homo sapiens, UniProt Q8WUI4).
T4 construct: Eurofins Cerep (contract screen)
T4 sequence (Q8WUI4 whole entry): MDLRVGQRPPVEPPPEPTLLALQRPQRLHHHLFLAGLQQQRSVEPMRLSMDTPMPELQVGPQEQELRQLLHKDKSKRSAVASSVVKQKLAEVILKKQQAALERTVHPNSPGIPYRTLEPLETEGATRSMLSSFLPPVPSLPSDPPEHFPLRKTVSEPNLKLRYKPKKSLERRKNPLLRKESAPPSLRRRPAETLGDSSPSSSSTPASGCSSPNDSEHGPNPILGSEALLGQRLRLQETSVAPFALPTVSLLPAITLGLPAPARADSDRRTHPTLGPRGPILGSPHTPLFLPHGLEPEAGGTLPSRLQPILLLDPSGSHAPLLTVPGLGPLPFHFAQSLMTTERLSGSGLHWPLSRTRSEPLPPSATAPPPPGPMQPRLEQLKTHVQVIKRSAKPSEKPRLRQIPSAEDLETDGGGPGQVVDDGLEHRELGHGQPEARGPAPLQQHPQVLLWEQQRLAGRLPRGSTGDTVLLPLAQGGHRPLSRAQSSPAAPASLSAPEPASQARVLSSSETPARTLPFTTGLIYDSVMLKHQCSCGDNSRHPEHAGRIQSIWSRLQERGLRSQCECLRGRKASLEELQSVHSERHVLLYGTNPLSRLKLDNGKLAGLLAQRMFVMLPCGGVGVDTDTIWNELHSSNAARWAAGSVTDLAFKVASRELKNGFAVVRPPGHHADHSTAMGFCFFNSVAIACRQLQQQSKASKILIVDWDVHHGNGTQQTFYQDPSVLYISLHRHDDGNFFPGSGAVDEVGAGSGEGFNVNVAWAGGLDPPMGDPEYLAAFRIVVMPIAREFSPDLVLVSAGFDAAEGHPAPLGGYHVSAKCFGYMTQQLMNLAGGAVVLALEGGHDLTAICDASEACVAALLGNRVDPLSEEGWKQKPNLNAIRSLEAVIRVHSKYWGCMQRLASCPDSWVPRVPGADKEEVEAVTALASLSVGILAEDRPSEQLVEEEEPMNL
Nature of the data set: Eurofins Cerep safety pharmacology screening. The format is biochemical. The settings on record: read-out: Mean % inhibition (n=2); HDAC7, 10 µM.
Excerpt: as §1

In data set [5] the target is T5, MMP-2 (Homo sapiens, UniProt P08253).
T5 construct: Eurofins Cerep (contract screen)
Nature of the data set: Eurofins Cerep safety pharmacology screening. The class given is biochemical. The settings on record: read-out: Mean % inhibition (n=2); MMP-2, 10 µM.
Excerpt: as §1

The target of data set [6] is T6, MMP-3 (Homo sapiens, UniProt P08254).
T6 construct: Eurofins Cerep (contract screen)
T6 sequence (P08254 100-477): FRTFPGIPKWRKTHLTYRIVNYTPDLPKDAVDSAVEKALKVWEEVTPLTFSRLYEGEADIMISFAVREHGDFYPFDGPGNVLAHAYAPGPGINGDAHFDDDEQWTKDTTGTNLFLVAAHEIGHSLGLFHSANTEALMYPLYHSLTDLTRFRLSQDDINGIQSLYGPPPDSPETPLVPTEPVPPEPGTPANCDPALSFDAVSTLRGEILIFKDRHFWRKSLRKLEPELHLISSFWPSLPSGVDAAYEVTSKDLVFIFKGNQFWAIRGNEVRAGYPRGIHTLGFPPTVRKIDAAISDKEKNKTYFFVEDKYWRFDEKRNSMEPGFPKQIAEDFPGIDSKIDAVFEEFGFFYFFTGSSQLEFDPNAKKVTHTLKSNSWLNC
Nature of the data set: Eurofins Cerep safety pharmacology screening. The format is biochemical. As to conditions: read-out: Mean % inhibition (n=2); MMP-3, 10 µM.
Excerpt: as §1

Data set [7] deals with T7, MMP-7 (Homo sapiens, UniProt P09237).
T7 construct: Eurofins Cerep (contract screen)
T7 sequence (P09237 95-267): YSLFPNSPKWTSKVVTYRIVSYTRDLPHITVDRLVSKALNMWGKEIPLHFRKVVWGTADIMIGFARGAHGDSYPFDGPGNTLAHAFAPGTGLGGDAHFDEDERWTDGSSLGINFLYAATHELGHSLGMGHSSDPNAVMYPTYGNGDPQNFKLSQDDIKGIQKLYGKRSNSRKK
Nature of the data set: Eurofins Cerep safety pharmacology screening. The format is biochemical. As to conditions: read-out: Mean % inhibition (n=2); MMP-7, 10 µM.
Excerpt: as §1

In data set [8] the target is T8, MMP-8 (Homo sapiens, UniProt P22894).
T8 construct: Eurofins Cerep (contract screen)
T8 sequence (P22894 101-467): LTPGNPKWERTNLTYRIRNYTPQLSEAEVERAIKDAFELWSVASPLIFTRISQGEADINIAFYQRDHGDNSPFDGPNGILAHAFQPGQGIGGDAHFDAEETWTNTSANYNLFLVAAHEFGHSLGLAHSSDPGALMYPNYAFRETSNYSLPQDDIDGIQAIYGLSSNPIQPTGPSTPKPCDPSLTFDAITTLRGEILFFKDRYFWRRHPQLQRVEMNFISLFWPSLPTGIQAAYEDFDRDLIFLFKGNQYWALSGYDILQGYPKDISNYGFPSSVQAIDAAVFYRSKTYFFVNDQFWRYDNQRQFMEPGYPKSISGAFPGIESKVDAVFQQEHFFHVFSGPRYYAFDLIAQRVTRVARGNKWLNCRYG
Nature of the data set: Eurofins Cerep safety pharmacology screening. The format is biochemical. As to conditions: read-out: Mean % inhibition (n=2), MMP-8, 10 µM.
Excerpt: as §1

In data set [9] the target is T9, MMP-9 (Homo sapiens, UniProt P14780).
T9 construct: Eurofins Cerep (contract screen)
T9 sequence (P14780 94-707): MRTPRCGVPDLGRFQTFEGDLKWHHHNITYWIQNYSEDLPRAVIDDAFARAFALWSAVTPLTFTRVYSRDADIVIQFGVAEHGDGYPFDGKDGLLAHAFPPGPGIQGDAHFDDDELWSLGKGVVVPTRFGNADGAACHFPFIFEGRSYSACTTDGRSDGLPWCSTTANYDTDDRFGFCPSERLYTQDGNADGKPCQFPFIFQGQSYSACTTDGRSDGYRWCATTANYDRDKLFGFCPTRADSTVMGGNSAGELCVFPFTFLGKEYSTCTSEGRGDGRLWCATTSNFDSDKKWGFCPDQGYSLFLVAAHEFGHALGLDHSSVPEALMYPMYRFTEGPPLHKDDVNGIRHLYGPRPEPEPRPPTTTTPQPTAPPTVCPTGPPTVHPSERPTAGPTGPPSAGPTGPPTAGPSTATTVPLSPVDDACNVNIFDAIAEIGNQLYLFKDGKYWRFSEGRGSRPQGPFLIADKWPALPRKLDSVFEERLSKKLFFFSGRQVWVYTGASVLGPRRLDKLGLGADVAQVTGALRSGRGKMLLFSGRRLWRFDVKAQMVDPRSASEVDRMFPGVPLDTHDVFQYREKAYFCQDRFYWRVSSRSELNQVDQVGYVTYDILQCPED
Nature of the data set: Eurofins Cerep safety pharmacology screening. The format is biochemical. As to conditions: read-out: Mean % inhibition (n=2); MMP-9, 10 µM.
Excerpt: as §1

Data set [10] is described as follows: Kinetic solubility by nephelometry. The format is physicochemical. The method, then:
Preliminary studies were conducted to assess the in vitro absorption, distribution, metabolism, and excretion (ADME) properties and in vivo mouse exposure of MMV1557817 following single oral dosing. Kinetic solubility was conducted using nephelometry based on a modification of a previously published method ([45]). Briefly, compound was dissolved in DMSO and spiked into either pH 6.5 phosphate buffer (to reflect the pH of the fasted state upper small intestine) or 0.01 M HCl (to reflect gastric pH 1.5–2) with a final DMSO concentration of 1% (vol/vol) and final concentrations ranging from 1 to 100 µg/mL. Samples were analyzed by nephelometry to determine the concentration above which precipitation occurred.

Data set [11] can be described thus: Metabolic stability in liver microsomes. The format is in vitro ADME. The settings on record: read-out: in vitro microsomal CLint. The method, then: (§2) Samples were collected over the incubation period, quenched by the addition of an equal volume of acetonitrile, and analyzed using a Waters Acquity UPLC and Xevo G2 QTOF mass spectrometer with positive electrospray ionization under the MS^E mode. The natural log of the substrate concentration was plotted against the incubation time to determine the first-order degradation rate constant which was normalized to the microsomal protein concentration to give the in vitro intrinsic clearance (in vitro CLint, µL/min/mg microsomal protein). […] Cell viability was determined by Trypan Blue exclusion. At various times over the incubation period, samples were quenched with the addition of an equal volume of acetonitrile and analyzed as described above. Metabolite identification was conducted by accurate mass and tandem mass spectrometry (MS/MS) analysis.

A short description of data set [12]: Metabolic stability in cryopreserved hepatocytes. The settings on record: pH 7.4, read-out: in vitro hepatocyte CLint. The format is in vitro ADME. The method, then:
as §2

Data set [13] can be described thus: Plasma stability. The format is in vitro ADME. As to conditions: 37°C. The method, then:
After centrifugation, the supernatant was collected and stored at −80°C until analysis. Sample analysis was conducted using a Waters Acquity UPLC and Quattro Premier mass spectrometer operated in a positive electrospray ionization mode with multiple-reaction monitoring (transition [m/z] 395.27 > 362.28, cone voltage 20 V, CID 7 V). […] The injection volume was 3 µL, and the flow rate was 0.4 mL/min. Concentrations were determined by comparison to a calibration curve prepared in blank plasma and processed in the same way as for the samples.

A short description of data set [14]: Plasma protein binding by ultracentrifugation. The settings on record: plasma (10% plasma diluted with PBS), pH 7.4. The class given is in vitro ADME, human. On the procedure: (§3) Human plasma was obtained from the Volunteer Blood Donor Registry (Walter & Eliza Hall Institute, Melbourne, Australia), rat plasma was from male Sprague-Dawley rats (Animal Resource Centre, Perth, Western Australia) and mouse plasma was procured as described above. RPMI-1640 media supplemented with 25 mM HEPES, 2 g/L sodium bicarbonate, and 100 mg/L neomycin were additionally supplemented with 5 […] on the day prior to binding assessment. […] Additional aliquots of spiked matrix were maintained at 37°C for 4.2 h but not centrifuged to serve as controls for stability assessment and to obtain a measure of the total concentration in each matrix. Following centrifugation, aliquots of the protein-free supernatant and the non-centrifuged matrix controls were “matrix matched” by addition of an equal volume of the opposite medium (i.e., either blank buffer or blank matrix) and assayed as described above with comparison to calibration standards prepared in 50% matrix/50% PBS.

Data set [15] can be described thus: Binding to Albumax medium by ultracentrifugation. The format is in vitro ADME. On the procedure: as §3
The subject of data set [16] is MMP2, 7, 8, 9, and 13. Details: method as in PMID 30537832. As to conditions: tested up to 200 µM; cited from earlier work.

Structures are written as SMILES. Converted amounts (≈) assume the structure as drawn. Like-named read-outs stand apart in the source and are kept apart here.

Broadly, the inhibition is the change of the read-out against control, counted positive when it falls. For orientation: solubility (kinetic) means solubility judged after dilution from a stock solution rather than from solid. A word on the microsomal CLint: it is the capacity of the preparation to metabolise the compound, expressed as a volume cleared per time. What is called hepatocyte CLint is the rate of metabolic loss divided by the concentration. One may read the amount remaining as the share of the starting amount still present when the sample was taken. A low value points to a greater loss.

T1 sequence (Q13547 whole entry): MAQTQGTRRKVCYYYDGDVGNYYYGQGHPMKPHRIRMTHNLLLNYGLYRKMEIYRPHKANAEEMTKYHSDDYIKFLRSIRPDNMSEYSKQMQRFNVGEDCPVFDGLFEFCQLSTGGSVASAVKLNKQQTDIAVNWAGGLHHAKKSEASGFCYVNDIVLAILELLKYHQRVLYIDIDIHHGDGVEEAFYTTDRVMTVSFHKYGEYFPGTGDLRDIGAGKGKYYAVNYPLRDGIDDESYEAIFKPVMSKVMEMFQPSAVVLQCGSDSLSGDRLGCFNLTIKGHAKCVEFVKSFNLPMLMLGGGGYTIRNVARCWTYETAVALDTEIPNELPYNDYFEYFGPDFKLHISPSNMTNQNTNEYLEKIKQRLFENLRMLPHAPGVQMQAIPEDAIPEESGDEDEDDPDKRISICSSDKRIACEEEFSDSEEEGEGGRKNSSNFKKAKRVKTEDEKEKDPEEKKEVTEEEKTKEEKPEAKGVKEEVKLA

In the case of `CC(C)(C)CC(=O)NC(C(=O)NO)c1ccc(-c2cc(F)c(F)c(F)c2)cc1` (centres unmarked) [MMV1557817, N-(2-(hydroxyamino)−2-oxo-1-(3′,4′,5′-trifluoro-[1,1′-biphenyl]-4-yl)ethyl)-3,3-dimethylbutanamide], the inhibition at 10 µM in data set [1] was 2.8%; in data set [2], 5.3%; in data set [3], -2.8%; in data set [4], 7.7%; in [5] it was 39.8%; in data set [6] it was -0.8%. Further, the inhibition at 10 µM in data set [7] was -6.7%; in [8], 52.6%; in data set [9] it was 46.3%. Also, the kinetic solubility in data set [10] (pH 2.0 (0.01 M HCl)) and in [10] (pH 6.5 phosphate buffer) was 12.5 to 25 µg/mL (≈ 31.7 to 63.4 µM) in each case. For the same molecule, the results for the intrinsic clearance (microsomal CLint) at 1 µM in data set [11] (human liver microsomes), in data set [11] (mouse liver microsomes) and in [11] (rat liver microsomes) were 11 µL/min/mg, 23 µL/min/mg and 29 µL/min/mg, respectively. Moreover, the hepatocyte CLint at 1 µM in data set [12] (human cryopreserved hepatocytes) was found to be 2 µL/min/1e6 cells; in data set [12] (rat cryopreserved hepatocytes), 4 µL/min/1e6 cells. The fraction remaining at 4 h came out at 97% in [13] (human plasma) and 93% in [13] (mouse plasma). The fraction unbound at 4.2 h in data set [14] (Sprague-Dawley (rat plasma), human, summary in text over the plasma species tested, read-out: bound to plasma proteins) was 0.01 to 0.02; in data set [14] (human plasma, read-out: Plasma protein binding (converted)), 0.012. In [15] (Albumax medium), the “unbound in Albumax medium” value came out at 15.5%. This molecule showed an Albumax media binding in data set [15] (Albumax medium used for in vitro activity assessment) of 84.5%. Besides, the off-target inhibition entry in [16] is “limited off-target inhibitory affects”.

Source of the values: article PMC11237774, “On-target, dual aminopeptidase inhibition provides cross-species antimalarial activity” (mBio, 2024).
